Like-named read-outs stand apart in the source and are kept apart here.
Experiments:
[1] = tested on: human non-small cell lung cancer NCI-H358 xenograft; experiment: Antitumor activity in NCI-H358 xenograft mouse model; assay type: in vivo, NPSG mice; details: for TGI(%) / Tumor volume (mm^3) (day 14): NPSG mice, gavage once daily 10 mg/kg, day 14
Protocol: Tumor growth inhibitory activity of the compounds of the present disclosure was evaluated and verified in a human non-small cell lung cancer NCI-H358 xenograft mouse model.
[Test materials]: NCI-H358 cell line carrying KRAS G12C mutation, provided by KYinno Biotechnology Co., Ltd. (from ATCC, Cat #CRL-5807). NPSG mice, female, provided by Beijing Phenotek Biotechnologies Inc.
[Experimental procedure]: 5×10^6 NCI-H358 cells (containing 50% Matrigel) were inoculated subcutaneously on the right flank of 6-8 weeks old female NPSG mice, with the inoculation volume of 0.1 mL. When the average tumor size reached 160-220 mm^3, the mice were grouped randomly according to tumor size and body weight, upon which the mice were treated with compounds on the same day designated as Day 0. The mice were gavage administrated once daily at 10 mg/kg or solvent control (50 mM citrate buffer containing 10% cyclodextrin, pH5.0). Tumor volume and body weight were measured twice a week during the study. The tumor volume was calculated by the formula V=D×d×d/2, wherein D and d refer to the long and short diameter of the tumor respectively.
In addition, using the same materials and procedures as above, the tumor inhibition activity of Example 9 at different doses in the above-mentioned non-small cell lung cancer mouse model and its effect on body weight were also investigated.

[2] = tested on: human non-small cell lung cancer cells NCI-H358 with KRas G12C mutation; experiment: NCI-H358 cell proliferation, CellTiter-Glo Luminescent Cell Viability Assay; assay type: cell-based; details: for inhibition at 1 µM: 1 μM compound, read-out: Inhibition rate % (1 μM)
Description: This assay verified the inhibitory activity of the compounds of the present disclosure on the proliferation of human non-small cell lung cancer cells NCI-H358 with KRas G12C mutation by using Promega's CellTiter-Glo® Luminescent Cell Viability Assay kit.
[Test materials]: NCI-H358 cell line (Cell Resource Center, IBMS, CAMS/PUMC, Item number: 3111C0001CCC000470), 96-well transparent flat-bottomed black-walled cell culture plate (Greiner Bio one, Cat #655096), RPMI-1640 Medium (GE, Cat #SH30809.01), Fetal Bovine Serum FBS (Thermo Fisher, Cat #10099-141), CellTiter-Glo® Luminescent Cell Viability Assay Kit (Promega, Cat #G7573), PBS (Solarbio, Cat #P1020), Trypsin (Thermo Fisher, Cat #25200072), DMSO (Sigma, Cat #D2650), Methyl cellulose (SIGMA, Cat #9004-67-5).
[Experimental procedure]: 180 μL of cell suspension (RPMI1640 solution with 10% FBS and 1% methyl cellulose) was charged to a 96-well cell culture plate at a density of 1500 cells/well. A control group containing no cells, no compounds and only 3D complete medium (RPMI 1640 solution with 1! Methyl cellulose and 10% FBS) (i.e. culture medium control) and a control group containing no compounds but cells (i.e. cell control) were set. AMG510 or the following reference compounds were used as positive controls. The cell plate was placed in a cell incubator overnight. A 10-fold drug solution (RPMI1640 solution with 10% FBS and 1% DMSO) was prepared at a concentration of 10 μM, and 20 μL of this solution was added to each well of the 96-well plate seeded with cells, so that the final concentration of the compounds in each well was 1 μM, and the DMSO concentration […] replicate wells were set up for each compound. The solutions of AMG510 or the following reference compounds were prepared in the same way and added to the positive control wells. The cell plate was placed in a cell incubator and cultured for 120 h. For endpoint detection, the CellTiter-Glo reagent was melted, and the cell plate was moved to room temperature to equilibrate for 30 minutes, added with 100 µL of CellTiter-Glo to each well, and shaken on an orbital shaker for 5 minutes to fully lyse the cells. The plate was kept at room temperature for 20 minutes to stabilize the luminescence signal, and the luminescence value of each well was full wavelength scanned with a multi-functional microplate reader (Molecular Devices, Spectramax M3 microplate reader).
[Test samples] The compounds of Examples 1-39, and reference compound A
[Data Analysis] The following formula was used to calculate the cell inhibition rate under the action of each concentration of the compounds:
Inhibition rate %=[1−(LumDrug to be tested−LumCulture medium control)/(LumCell control−LUMCulture medium control)]×100%
IC50 values were calculated using GraphPad Prism 7.0 software, nonlinear Sigmoidal regression was used to fit the data to obtain a dose-response curve.

| SMILES | TGI(%) [1] [%] | Tumor volume (mm^3) (day 14) [1] | inhibition at 1 µM ([2]; 120 h) [%] | IC50 ([2]; 120 h, read-out: IC50) [µM] | IC50 ([2]; read-out: IC50 value) [µM] | effect on body weight ([1]; different doses, FIG. 1) | tumor inhibition activity ([1]; different doses, FIG. 1) |
| --- | --- | --- | --- | --- | --- | --- | --- |
| C=CC(=O)N1CCN(c2nc(=O)n(-c3c(C)ccnc3C(C)C)c3nc(-c4c(O)cccc4F)c(F)cc23)[C@@H](C)C1 (atropisomer, axis not shown) [AMG510, reference compound] | 66 | 525.1 | – | – | – | – | – |
| C=CC(=O)N1CCN(c2ncnc3c(F)c(-c4ccc(F)c5sc(N)nc45)c(Cl)cc23)CC1 [Ref. Comp. A, reference compound] | – | – | 96.9 | 0.011 | – | – | – |
| C=CC(=O)N1CCN(c2c(C#N)cnc3c(F)c(-c4ccc(F)c5sc(N)nc45)c(Cl)cc23)CC1 [Example 9, 4-(4-Acryloylpiperazin-1-yl)-7-(2-amino-7-fluorobenzo[d]thiazol-4-yl)-6-chloro-8-fluoroquinoline-3-carbonitrile] | – | – | 98.8 | 0.0086 | < 0.02 | without significant side effects on body weight | excellent tumor inhibition activity |
| C=CC(=O)N1CCN(c2c(C#N)cnc3c(F)c(-c4ccc(F)c5sc(N)nc45)c(Cl)cc23)C[C@H]1C [Example 8, 4-((R)-4-acryloyl-3-methylpiperazin-1-yl)-7-(2-amino-7-fluorobenzo[d]thiazol-4-yl)-6-chloro-8-fluoroquinoline-3-carbonitrile] | 67 | 519.2 | 94 | 0.018 | < 0.02 | – | – |
